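Dose response: 5 concentrations. Exposure: 48 h. Format: 96-well plates. Endpoint: linear interpolation; highest concentration if not reached. Definition used: TGI = concentration required for complete inhibition of growth.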
Experiments:
Assay in all cases: NCI-60 cell line screen, 48 h
[1] = test system: 786-0 renal
[2] = test system: A549 NSCLC
[3] = test system: COLO 205 colon
[4] = test system: DU-145 prostate
[5] = test system: HCC-2998 colon
[6] = test system: IGROV1 ovarian
[7] = test system: MCF7 breast
[8] = test system: MDA-MB-231 breast
[9] = test system: NCI/ADR-RES ovarian
[10] = test system: OVCAR-3 ovarian
[11] = test system: OVCAR-4 ovarian
[12] = test system: OVCAR-8 ovarian
[13] = test system: RPMI-8226 leukemia
[14] = test system: RXF 393 renal
[15] = test system: SK-MEL-5 melanoma
[16] = test system: TK-10 renal
[17] = test system: UACC-62 melanoma
[18] = test system: SF-539 CNS
[19] = test system: HL-60(TB) leukemia
[20] = test system: NCI-H522 lung

Compound	TGI [1]	TGI [2]	TGI [3]	TGI [4]	TGI [5]	TGI [6]	TGI [7]	TGI [8]	TGI [9]	TGI [10]	TGI [11]	TGI [12]	TGI [13]	TGI [14]	TGI [15]	TGI [16]	TGI [17]	TGI [18]	TGI [19]	TGI [20]
CCOC(=O)c1nnsc1NC(=O)Nc1ccc(Cc2ccc(NC(=O)Nc3snnc3C(=O)OCC)cc2)cc1	33.9 µM	> 100 µM	> 100 µM	> 100 µM	> 100 µM	> 100 µM	> 100 µM	95.6 µM	> 100 µM	> 100 µM	> 100 µM	76.6 µM	> 100 µM	70.5 µM	93 µM	> 100 µM	> 100 µM			
CCCc1cc(=O)oc2c3c(c4c(c12)OC(C)(C)CC4)O[C@@H](C)[C@H](C)[C@H]3O	18.1 µM	25.7 µM	28.6 µM	31.8 µM	28.3 µM	32.7 µM	47.3 µM	11.1 µM	29.1 µM	32.7 µM	22.5 µM	29.9 µM	8.74 µM	27.1 µM	20.3 µM		21.1 µM	38.2 µM		
COc1cc(C=O)cc(/C=N/n2c3ccccc3c3ccccc32)c1O	> 100 µM	> 100 µM	52.1 µM	> 100 µM	67.4 µM		42.6 µM	> 100 µM		> 100 µM	> 100 µM	> 100 µM	46.2 µM	99.7 µM		> 100 µM	> 100 µM	> 100 µM	> 100 µM	73.2 µM
N#CC(C#N)=C1c2ccccc2C(=NN)c2ccccc21	> 100 µM		> 100 µM	> 100 µM	> 100 µM	> 100 µM	> 100 µM	> 100 µM	> 100 µM	> 100 µM		> 100 µM	> 100 µM	> 100 µM	> 100 µM	> 100 µM	> 100 µM	> 100 µM		> 100 µM
NC(=O)Nc1ccc(S(=O)(=O)Nc2ccc(S(N)(=O)=O)cc2)cc1	> 100 µM	> 100 µM	> 100 µM	> 100 µM		> 100 µM	> 100 µM	> 100 µM	> 100 µM	> 100 µM	> 100 µM	> 100 µM	> 100 µM	> 100 µM	> 100 µM	> 100 µM	> 100 µM			> 100 µM
N#C[C@@H](c1nc2ccccc2s1)c1ncccc1[N+](=O)[O-]	17.2 µM	18.1 µM	8.8 µM	> 31.6 µM	28.5 µM		17.3 µM	17.4 µM	19.4 µM	10.6 µM	> 100 µM	20.6 µM		> 31.6 µM	37.3 µM	74.7 µM	> 31.6 µM			12 µM
O=[N+]([O-])C(=C(Nc1ccccc1)Nc1ccccc1)/C(Cl)=C(\Cl)[N+](=O)[O-]	15 µM	35.6 µM	7.08 µM	8.92 µM	28.9 µM		20.3 µM	10.8 µM	38.5 µM	12 µM	17.6 µM	2.77 µM	19.2 µM	6.13 µM	5.05 µM	16.9 µM	18.7 µM	4.15 µM		
CCN(C(=O)N[C@@H](Cc1ccccc1)C(=O)N[C@@H](CC(C)C)C(=O)OC)c1ccccc1	40.5 µM	> 100 µM	32.2 µM	31.7 µM	> 100 µM	42.2 µM	62 µM	> 100 µM	> 100 µM	72 µM	> 100 µM	36.7 µM	56.9 µM	37.7 µM		> 100 µM	36.1 µM	36.1 µM		22.6 µM
CC1OC(OC2C(O)COC(OC3C(C)OC(OC4C(OC(=O)[C@]56CCC(C)(C)C[C@@H]5C5=CCC7[C@@]8(C)C[C@H](O)[C@H](OC9OC(CO)C(O)C(OC%10OC(CO)C(O)C(O)C%10O)C9O)[C@@](C)(CO)[C@@H]8CC[C@@]7(C)[C@]5(C)CC6)OCC(O)C4O)C(O)C3OC3OCC(O)(CO)C3O)C2O)C(O)C(O)C1O (some centres not stated)	15.4 µM	13.9 µM	14.9 µM	16.2 µM	20.8 µM		29.4 µM	16.7 µM	16.7 µM	19.1 µM	19.5 µM	18.9 µM	50 µM	17.2 µM	15.8 µM	22.1 µM	22.9 µM	17.5 µM		17.4 µM
C=C[C@@]1(C)CC[C@@H]2[C@@]3(C1)O[C@H]3CC1[C@](C)(C(=O)OC)CCC[C@@]12C (some centres not stated)	36.8 µM	54.7 µM	31.8 µM	> 100 µM	31.6 µM	58.4 µM	33.2 µM	58.1 µM	42.1 µM	31.9 µM	> 100 µM	40.9 µM	65.6 µM	33 µM	33.7 µM	51.7 µM	> 100 µM			31.6 µM
